Test results reported in PubChem BioAssay AID977614 (Broad Institute, 2014).
Active and inactive are the calls of the source.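 The calls were made as follows: active = parasite count per well reduced by over 3 SD from the mean, with host cell number above 80% of untreated; inactive = the rest.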

These compounds were tested on L. donovani amastigotes in THP-1 macrophages, DAPI imaging, 72 h (assay: L. donovani intracellular amastigote growth inhibitors, imaging, THP-1 host macrophages, single concentration (AID 977614);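 also: signal is the parasite per host cell ratio from DAPI stained kinetoplasts and nuclei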).

Compound | AC50
C[C@H]1CN([C@@H](C)CO)C(=O)CCCn2nncc2CO[C@@H]1CN(C)Cc1ccccc1C(=O)O | > 10 µM (inactive)
CCC(=O)N1[C@H](CO)[C@H](c2ccccc2)[C@H]1CN(CC1CCC1)S(C)(=O)=O | > 10 µM (inactive)
C[C@H](CO)N1C[C@H](C)[C@H](CN(C)C(=O)Nc2ccccc2C(F)(F)F)OCc2cnnn2CCCC1=O | > 10 µM (inactive)
C[C@@H]1CN([C@H](C)CO)C(=O)CCCn2cc(nn2)CO[C@H]1CN(C)Cc1ccccc1 | > 10 µM (inactive)
CCCN1[C@H](CO)[C@H](c2ccc(-c3ccccc3F)cc2)[C@@H]1CNC(=O)C1CCC1 | > 10 µM (inactive)
C[C@H]1CN([C@@H](C)CO)C(=O)CCCn2nncc2CO[C@@H]1CN(C)Cc1ccc(C(=O)Nc2ccccc2N)cc1 | > 10 µM (inactive)
COc1ccccc1S(=O)(=O)N(C)C[C@@H]1OCc2cn(nn2)CCCC(=O)N([C@H](C)CO)C[C@H]1C | > 10 µM (inactive)
COc1ccc(NC(=O)N(C)C[C@@H]2OCc3cnnn3CCCC(=O)N([C@@H](C)CO)C[C@H]2C)c(OC)c1 | > 10 µM (inactive)
C[C@@H]1CN([C@H](C)CO)C(=O)CCCn2nncc2CO[C@@H]1CN(C)CC1CCCCC1 | > 10 µM (inactive)
O=C(CC(F)(F)F)N1C[C@@H]2[C@H](c3ccccc31)[C@H](CO)N2C(=O)c1ccncc1 | > 10 µM (inactive)
C[C@@H]1CN([C@@H](C)CO)C(=O)CCCn2nncc2CO[C@H]1CN(C)Cc1ccc2c(c1)OCCN2C | > 10 µM (inactive)
C/C=C/c1ccc([C@@H]2[C@H](CO)N[C@H]2CN(CC(C)C)C(=O)c2ccccn2)cc1 | > 10 µM (inactive)
C[C@H]1CN([C@@H](C)CO)C(=O)CCCn2cc(nn2)CO[C@@H]1CN(C)C(=O)Nc1cccc(C(F)(F)F)c1 | > 10 µM (inactive)
C[C@@H]1CN([C@H](C)CO)C(=O)CCCn2nncc2CO[C@H]1CN(C)C(=O)Nc1ccccc1C(F)(F)F | > 10 µM (inactive)
C[C@@H]1CN([C@H](C)CO)C(=O)CCCn2nncc2CO[C@@H]1CN(C)C(=O)c1ccc2ccn(C)c2c1 | > 10 µM (inactive)
O=C(NC[C@H]1[C@H](c2ccccc2)[C@H](CO)N1Cc1cccnc1)c1ccccn1 | > 10 µM (inactive)
O=C(c1ccccn1)N1C[C@H]2[C@@H](c3ccccc31)[C@@H](CO)N2C(=O)Nc1ccccc1Cl | > 10 µM (inactive)
Cc1cccc(S(=O)(=O)N2C[C@H]3[C@@H](c4ccccc42)[C@@H](CO)N3C(=O)c2ccccc2)c1 | > 10 µM (inactive)
O=C(Cc1ccccn1)N1[C@H](CO)[C@H]2c3ccccc3NC[C@H]21 | > 10 µM (inactive)
C[C@@H]1CN([C@@H](C)CO)C(=O)CCCn2nncc2CO[C@@H]1CN(C)S(=O)(=O)c1cn(C)cn1 | > 10 µM (inactive)
O=C(Nc1cccc(F)c1)N1C[C@H]2[C@@H](c3ccccc31)[C@H](CO)N2C(=O)Cc1ccccn1 | > 10 µM (inactive)
COc1ccccc1C(=O)N1C[C@H]2[C@@H](c3ccccc31)[C@@H](CO)N2C(=O)Cc1ccccc1 | > 10 µM (inactive)
CCN(C[C@@H]1[C@@H](c2ccccc2)[C@@H](CO)N1CC1CC1)C(=O)c1ccccn1 | > 10 µM (inactive)
CN1C[C@H]2[C@@H](c3ccccc31)[C@H](CO)N2Cc1ccccc1Cl | > 10 µM (inactive)
C[C@@H]1CN([C@@H](C)CO)C(=O)CCCn2cc(nn2)CO[C@H]1CN(C)C(=O)Nc1cccc(C(F)(F)F)c1 | > 10 µM (inactive)
O=C(CC(F)(F)F)N1C[C@H]2[C@@H](c3ccccc31)[C@H](CO)N2CC1CCOCC1 | > 10 µM (inactive)

Compound | AC50
C[C@@H]1CN([C@@H](C)CO)C(=O)CCCn2nncc2CO[C@@H]1CN(C)C(=O)Nc1ccnc(N2CCOCC2)c1 | > 10 µM (inactive)
COCC(=O)N1[C@H](CO)[C@@H]2c3ccccc3NC[C@@H]21 | > 10 µM (inactive)
C[C@H](CO)N1C[C@H](C)[C@@H](CN(C)Cc2ccc3cccnc3c2)OCc2cnnn2CCCC1=O | > 10 µM (inactive)
C[C@H]1CN([C@@H](C)CO)C(=O)CCCn2nncc2CO[C@@H]1CN(C)C(=O)Nc1ccc2c(c1)OCCO2 | > 10 µM (inactive)
O=C(CC(F)(F)F)N1C[C@H]2[C@@H](c3ccccc31)[C@H](CO)N2C(=O)c1ccncc1 | > 10 µM (inactive)
C/C=C/c1ccc([C@H]2[C@@H](CO)N(C(C)=O)[C@@H]2CN(CC)C(=O)CN(C)C)cc1 | > 10 µM (inactive)
CCC(=O)N1[C@H](CO)[C@H](c2ccc(C#CC3(O)CCCC3)cc2)[C@@H]1CNC(C)=O | > 10 µM (inactive)
C[C@H]1CN([C@@H](C)CO)C(=O)CCCn2nncc2CO[C@H]1CN(C)Cc1cccc2c1OCCCO2 | > 10 µM (inactive)
CCCN1[C@H](CO)[C@H](c2ccc(C3=CCCC3)cc2)[C@H]1CNC(=O)NC(C)C | > 10 µM (inactive)
COc1ccccc1C(=O)N1C[C@H]2[C@@H](c3ccccc31)[C@@H](CO)N2CC1CCCC1 | > 10 µM (inactive)
CC(=O)N1[C@@H]2CN(S(=O)(=O)c3ccccc3C)c3ccccc3[C@@H]2[C@@H]1CO | > 10 µM (inactive)
CCCN1[C@H](CO)[C@H](c2ccc(C#Cc3ccccc3)cc2)[C@@H]1CNC1CCCC1 | > 10 µM (inactive)
CCCNC(=O)N1[C@H](CO)[C@H](c2ccc(-c3ccc(C#N)cc3)cc2)[C@@H]1CNC | > 10 µM (inactive)
CCN(C[C@H]1N[C@H](CO)[C@H]1c1ccccc1)C(=O)c1ccncc1 | > 10 µM (inactive)
COc1ccc(CN2[C@@H]3CNc4ccccc4[C@@H]3[C@@H]2CO)cc1 | > 10 µM (inactive)
C[C@H]1CN([C@@H](C)CO)C(=O)CCCn2nncc2CO[C@@H]1CN(C)C(=O)Nc1ccccc1C(F)(F)F | > 10 µM (inactive)
O=C(Nc1ccccc1Cl)N1C[C@@H]2[C@H](c3ccccc31)[C@H](CO)N2C(=O)c1cccnc1 | > 10 µM (inactive)
C/C=C/c1ccc([C@@H]2[C@H](CO)N(C(C)=O)[C@H]2CN(C(C)=O)C2CCCC2)cc1 | > 10 µM (inactive)
COCC(=O)N1[C@H](CO)[C@H]2c3ccccc3NC[C@H]21 | > 10 µM (inactive)
O=C(c1ccc2c(c1)OCO2)N1C[C@H]2[C@@H](c3ccccc31)[C@@H](CO)N2C(=O)CC1CC1 | > 10 µM (inactive)
Cc1cccc(S(=O)(=O)N2C[C@@H]3[C@H](c4ccccc42)[C@H](CO)N3C(=O)c2ccccc2)c1 | > 10 µM (inactive)
CNC[C@@H]1OCc2cn(nn2)CCCC(=O)N([C@@H](C)CO)C[C@@H]1C | > 10 µM (inactive)
CCS(=O)(=O)N(C)C[C@H]1[C@@H](c2ccccc2)[C@@H](CO)N1C(=O)CN(C)C | > 10 µM (inactive)
COc1ccccc1CN1[C@@H]2CN(C(=O)C3CCOCC3)c3ccccc3[C@@H]2[C@@H]1CO | > 10 µM (inactive)
Cc1noc(C)c1NC(=O)N(C)C[C@@H]1OCc2cnnn2CCCC(=O)N([C@H](C)CO)C[C@H]1C | > 10 µM (inactive)
C[C@H](CO)N1C[C@H](C)[C@H](CN(C)S(=O)(=O)c2ccc(Oc3ccccc3)nc2)OCc2cnnn2CCCC1=O | > 10 µM (inactive)

Compound | AC50
CN(Cc1ccccc1F)C[C@H]1[C@@H](c2ccccc2)[C@@H](CO)N1S(C)(=O)=O | > 10 µM (inactive)
C[C@H]1CN([C@@H](C)CO)C(=O)CCCn2cc(nn2)CO[C@@H]1CN(C)Cc1ccccc1 | > 10 µM (inactive)
CCN(C[C@H]1[C@H](c2ccc(-c3cccnc3)cc2)[C@H](CO)N1C(C)=O)C(C)=O | > 10 µM (inactive)
COc1ccccc1NC(=O)N1C[C@@H]2[C@H](c3ccccc31)[C@H](CO)N2CC1CCOCC1 | > 10 µM (inactive)
CCC(=O)N1[C@H](CO)[C@H]2c3ccccc3N(C(=O)Nc3ccc(Cl)cc3)C[C@H]21 | > 10 µM (inactive)
O=C(Nc1cccc(F)c1)N1C[C@H]2[C@@H](c3ccccc31)[C@@H](CO)N2C(=O)Cc1ccccn1 | > 10 µM (inactive)
CN(C[C@H]1N[C@H](CO)[C@@H]1c1ccc(-c2cccnc2)cc1)C(=O)NC1CCCC1 | > 10 µM (inactive)
CCC(=O)N1[C@@H]2CN(S(=O)(=O)c3ccc(F)cc3)c3ccccc3[C@@H]2[C@@H]1CO | > 10 µM (inactive)
CN1[C@@H](CO)[C@@H]2c3ccccc3NC[C@@H]21 | > 10 µM (inactive)
COCCN(C[C@@H]1[C@@H](c2ccccc2)[C@H](CO)N1C(=O)C1CC1)C(C)=O | > 10 µM (inactive)
CNC[C@@H]1OCc2cn(nn2)CCCC(=O)N([C@H](C)CO)C[C@H]1C | > 10 µM (inactive)
CC(=O)N1[C@H](CO)[C@H](c2ccccc2)[C@H]1CNC(=O)CN1CCOCC1 | > 10 µM (inactive)
C[C@@H]1CN([C@@H](C)CO)C(=O)CCCn2nncc2CO[C@H]1CN(C)Cc1cccc(C(F)(F)F)c1 | > 10 µM (inactive)
C[C@H]1CN([C@@H](C)CO)C(=O)CCCn2nncc2CO[C@H]1CN(C)S(=O)(=O)c1ccc(Oc2ccccc2)nc1 | > 10 µM (inactive)
C[C@@H]1CN([C@@H](C)CO)C(=O)CCCn2cc(nn2)CO[C@H]1CN(C)C(=O)Nc1cccc2ccccc12 | > 10 µM (inactive)
C[C@H](CO)N1C[C@H](C)[C@H](CN(C)C(=O)c2cc(-c3ccccc3)on2)OCc2cnnn2CCCC1=O | > 10 µM (inactive)
COCC(=O)N1[C@@H]2CNc3ccccc3[C@@H]2[C@@H]1CO | > 10 µM (inactive)
CCCC(=O)N1C[C@H]2[C@@H](c3ccccc31)[C@@H](CO)N2Cc1cocn1 | > 10 µM (inactive)
C[C@@H]1CN([C@H](C)CO)C(=O)CCCn2nncc2CO[C@@H]1CN(C)Cc1ccccc1C(=O)O | > 10 µM (inactive)
O=C(CC(F)(F)F)N1C[C@@H]2[C@H](c3ccccc31)[C@@H](CO)N2CC1CCOCC1 | > 10 µM (inactive)
O=C(c1ccncc1)N1C[C@@H]2[C@H](c3ccccc31)[C@@H](CO)N2Cc1ccccc1F | > 10 µM (inactive)
COc1cccc(NC(=O)N2[C@@H](CO)[C@H](c3ccccc3)[C@@H]2CNCC(C)C)c1 | > 10 µM (inactive)
CC(=O)N1[C@H](CO)[C@@H](c2ccccc2)[C@H]1CN(C)S(=O)(=O)c1ccccc1 | > 10 µM (inactive)
C[C@@H]1CN([C@H](C)CO)C(=O)CCCn2nncc2CO[C@@H]1CN(C)C(=O)c1cc(-c2ccccc2)on1 | > 10 µM (inactive)
